9 molecules from PubChem BioAssay (NCI) can be followed below.

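Cultured in 96-well plates, cells were exposed to test compound for 48 hours across five concentrations. Abbreviation: GI50, concentration required for 50% inhibition of growth. TGI is the concentration that stops growth completely.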 Bounds are passed on as bounds.

Among the test systems are A549 NSCLC; ACHN renal; HCT-15 colon; K-562 leukemia; OVCAR-4 ovarian; OVCAR-8 ovarian; SN12C renal; SNB-75 CNS; SW-620 colon; UACC-257 melanoma.
Holding throughout (assay): DTP human tumour cell line panel, 48 h

Broadly, the GI50 is the concentration giving 50% growth inhibition. For orientation: TGI means the concentration at which net growth stops. A lower TGI goes with more potent growth arrest. Take `CCC(=O)O[C@H]1CC[C@H]2[C@@H]3CC[C@H]4CC(=O)[C@H](C)C[C@]4(C)[C@H]3CC[C@]12C`: the GI50 in the test with A549 NSCLC is 19.5 µM; in the test on ACHN renal, 38 µM; with HCT-15 colon, 37.7 µM; in the test with K-562 leukemia it was 5.51 µM; in the test on OVCAR-4 ovarian, over 79.1 µM; in the test on OVCAR-8 ovarian it was 43.1 µM. The GI50 in the test on SN12C renal was over 85.2 µM; with SNB-75 CNS it was over 100 µM; in the test with SW-620 colon, 31.9 µM; in the test with UACC-257 melanoma, 20.8 µM. Moreover, the TGI with A549 NSCLC was over 57.5 µM; in the test on ACHN renal, over 100 µM; with HCT-15 colon, over 100 µM; in the test with K-562 leukemia, over 59.5 µM; in the test on OVCAR-4 ovarian, over 100 µM; with OVCAR-8 ovarian, over 100 µM. For the same molecule, the TGI with SN12C renal was over 100 µM; in the test on SNB-75 CNS, over 100 µM; in the test with SW-620 colon it was over 100 µM; in the test with UACC-257 melanoma, 92.7 µM.
As for `CCc1n(Cc2ccc3ccccc3n2)cc[n+]1Cc1ccc2ccccc2n1`, the GI50 was 5.27 µM in the test with A549 NSCLC; 28 µM with ACHN renal; 65.7 µM in the test on HCT-15 colon; 0.493 µM in the test with K-562 leukemia; 0.0378 µM in the test with OVCAR-4 ovarian; 1.63 µM with OVCAR-8 ovarian. Moreover, the GI50 is 0.317 µM with SN12C renal, 0.141 µM in the test on SNB-75 CNS, 1.39 µM in the test on SW-620 colon and 0.0796 µM in the test with UACC-257 melanoma. For the same molecule, the TGI was over 100 µM in the test on A549 NSCLC; over 100 µM in the test on ACHN renal; over 100 µM in the test with HCT-15 colon; 16.1 µM with K-562 leukemia; 10.4 µM in the test with OVCAR-4 ovarian; 17.6 µM in the test on OVCAR-8 ovarian. Also, the TGI in the test on SN12C renal amounted to 7.75 µM; in the test with SNB-75 CNS, 2.4 µM; in the test with SW-620 colon it was 30.2 µM; in the test with UACC-257 melanoma it was 0.695 µM.
Regarding `CCN(CC)CCNc1ccc([N+](=O)[O-])c2sc3ccccc3c(=O)c12`, the GI50 was 0.656 µM with A549 NSCLC; 0.646 µM in the test on ACHN renal; 1.7 µM with HCT-15 colon; 0.582 µM in the test on K-562 leukemia; 1.35 µM in the test on OVCAR-4 ovarian; 0.571 µM in the test on OVCAR-8 ovarian. Moreover, the GI50 was 1.07 µM in the test with SN12C renal, 1.65 µM in the test with SNB-75 CNS, 0.478 µM in the test on SW-620 colon and 1.37 µM in the test on UACC-257 melanoma. The TGI in the test on A549 NSCLC is 2.15 µM; in the test on ACHN renal, 4.44 µM; in the test with HCT-15 colon, 7.59 µM; with K-562 leukemia, 3.39 µM; in the test on OVCAR-4 ovarian it was 2.81 µM; with OVCAR-8 ovarian, 2.42 µM. Besides, the TGI in the test with SN12C renal came out at 11.4 µM; in the test with SNB-75 CNS it was 4.78 µM; in the test on SW-620 colon, 1.93 µM; with UACC-257 melanoma, 3.12 µM.
Consider `COc1ccccc1/C=C/[N+](=O)[O-]`, for which the GI50 in the test on A549 NSCLC is 3 µM; in the test on ACHN renal it was 2.01 µM; with HCT-15 colon, 2.32 µM; in the test with K-562 leukemia it was 1.56 µM; in the test on OVCAR-4 ovarian, 3.56 µM; in the test with OVCAR-8 ovarian it was 3.1 µM. Also, the GI50 with SN12C renal is 2.47 µM; with SNB-75 CNS it was 3.57 µM; in the test with SW-620 colon it was 1.56 µM; with UACC-257 melanoma, 1.84 µM. In addition, the TGI with A549 NSCLC was 10.4 µM; in the test on ACHN renal, 3.84 µM; with HCT-15 colon it was 6.98 µM; in the test on K-562 leukemia it was 7.37 µM; in the test on OVCAR-4 ovarian it was 37.7 µM; with OVCAR-8 ovarian, 10.4 µM. Besides, the TGI in the test on SN12C renal came out at 8.03 µM; with SNB-75 CNS, 44.5 µM; in the test on SW-620 colon, 3.19 µM; in the test with UACC-257 melanoma it was 4.32 µM.
Take `O=C(c1ccccc1)C1CCCCN1C(=O)c1ccccc1` (stereo not given): the TGI in the test on A549 NSCLC, in the test with ACHN renal, in the test on HCT-15 colon, in the test on K-562 leukemia, with OVCAR-4 ovarian and with OVCAR-8 ovarian was over 100 µM in each case. The TGI in the test with SN12C renal, in the test with SNB-75 CNS, with SW-620 colon and with UACC-257 melanoma was over 100 µM in each case.
Consider `CCCNCCCC(NC(C)=O)C(=O)NCc1ccccc1` (stereo not given), for which the TGI with A549 NSCLC, in the test on ACHN renal, in the test on HCT-15 colon, in the test on K-562 leukemia, in the test with OVCAR-4 ovarian and in the test with OVCAR-8 ovarian was over 100 µM each time. The TGI in the test with SN12C renal, with SNB-75 CNS, in the test with SW-620 colon and in the test with UACC-257 melanoma was over 100 µM in each case.
For `O=C(/C=C/C12c3ccccc3C(c3ccccc31)C1C(=O)N(c3ccccc3)C(=O)C12)c1ccccc1` (stereo not given), the GI50 with A549 NSCLC was 2.58 µM; in the test on ACHN renal it was 1.63 µM; with HCT-15 colon, 1.6 µM; in the test with K-562 leukemia it was 1.39 µM; with OVCAR-4 ovarian, 2.94 µM; with OVCAR-8 ovarian, 1.79 µM. In addition, the GI50 was 2.53 µM in the test with SN12C renal, 2.39 µM with SNB-75 CNS, 2.74 µM in the test on SW-620 colon and 2.3 µM with UACC-257 melanoma. Besides, the TGI in the test with A549 NSCLC is over 100 µM; with ACHN renal it was 4.08 µM; in the test on HCT-15 colon, 10.6 µM; in the test with K-562 leukemia, over 100 µM; in the test with OVCAR-4 ovarian, over 100 µM; in the test on OVCAR-8 ovarian, over 100 µM. The TGI in the test with SN12C renal is over 100 µM; in the test on SNB-75 CNS it was over 100 µM; in the test on SW-620 colon, over 100 µM; in the test on UACC-257 melanoma, 39.2 µM.
In the case of `CCCCS(=O)CCC(N)C(=O)O` (stereo not given), the TGI in the test on A549 NSCLC, in the test on ACHN renal, in the test on HCT-15 colon, in the test with K-562 leukemia, in the test on OVCAR-4 ovarian and in the test on OVCAR-8 ovarian was over 100 µM in each case. Besides, the TGI in the test with SN12C renal, with SNB-75 CNS, in the test with SW-620 colon and in the test on UACC-257 melanoma was over 100 µM in each case.
For `COc1cc(/C=C\c2ccccc2)cc(OC)c1OC`, the TGI in the test with A549 NSCLC was over 80.3 µM; in the test on ACHN renal, over 78.5 µM; in the test on HCT-15 colon, 36 µM; in the test with K-562 leukemia, over 43.2 µM; in the test on OVCAR-4 ovarian, over 61 µM; with OVCAR-8 ovarian, 46.7 µM. For the same molecule, the TGI in the test with SN12C renal was 48.6 µM; in the test on SNB-75 CNS, 6.9 µM; in the test on SW-620 colon, over 100 µM; in the test on UACC-257 melanoma, 41.3 µM.
